# According to PMC5671392, “Optimization of an in vitro assay methodology for competitive binding of thyroidogenic xenobiotics with thyroxine on human transthyretin and albumin” (MethodsX, 2017):
# How the values were obtained:
# [1] = tested on: human TTR isolated from human plasma; parameters: method as in PMID 19033396; details: in vitro; cited from earlier work
# [2] = molecular target: human transthyretin (TTR) (Homo sapiens, UniProt P02766); test: Competitive T4 radio-ligand (125I-T4) binding assay with human transthyretin; details: 30 nM TTR
# Text: (§1) The entire assay takes two days to complete for each batch of samples to be processed. The Day 1 procedure is described as follows. […] First, thaw the working solutions of these components to room temperature if they have been placed in frozen storage. For the protein working solutions, prepare the day they are to be used based on the number of assay aliquots required (one vial is sufficient for approximately 45 assay samples). […] Label a series of polypropylene test tubes corresponding to the samples being prepared. This should include triplicate samples for each ligand competitor concentration.
# (§2) The following steps describe the order of pipetting components for assay incubation mixtures. • 1. […] Continue for each increasing concentration of the ligand. Control samples receive 5 μL of DMSO in place of a competitor ligand. • 2. […] Centrifuge the samples at 300 × g for 30 s to force the solution to the bottom of the tube. • 4. Measure the initial radioactivity on the gamma counter. […]
# (§3) Label a series of clean test tubes corresponding to the samples prepared on Day 1 and repeat these labels on Bio-Spin® columns. Work on one replicate set at a time, leaving the remaining columns and incubation mixtures in the fridge until ready for processing. […] Measure the radioactivity of the eluate fraction, as well as the residual radioactivity in the incubation tubes containing the discarded pipette tips. […]
# human albumin (ALB) = human albumin (ALB) (Homo sapiens, UniProt P02768); test: Competitive T4 radio-ligand (125I-T4) binding assay with human albumin; details: 600 nM ALB
# human albumin (ALB), sequence (P02768 25-609): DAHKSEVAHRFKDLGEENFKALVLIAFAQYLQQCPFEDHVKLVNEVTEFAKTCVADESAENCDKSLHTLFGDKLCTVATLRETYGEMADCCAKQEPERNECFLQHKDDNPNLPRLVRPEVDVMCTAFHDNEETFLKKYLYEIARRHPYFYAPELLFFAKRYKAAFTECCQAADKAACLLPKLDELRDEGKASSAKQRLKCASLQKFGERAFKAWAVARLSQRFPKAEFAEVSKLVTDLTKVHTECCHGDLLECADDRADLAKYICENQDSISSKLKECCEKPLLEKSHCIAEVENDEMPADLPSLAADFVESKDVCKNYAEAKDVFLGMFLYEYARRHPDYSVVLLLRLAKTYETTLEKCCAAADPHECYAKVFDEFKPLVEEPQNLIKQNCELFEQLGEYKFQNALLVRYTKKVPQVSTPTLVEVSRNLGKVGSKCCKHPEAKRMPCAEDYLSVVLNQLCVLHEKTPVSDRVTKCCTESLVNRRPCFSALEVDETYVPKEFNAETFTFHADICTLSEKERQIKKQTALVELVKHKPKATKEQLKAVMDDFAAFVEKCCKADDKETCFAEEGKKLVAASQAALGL
# Text: as §1, §2, §3
smiles,measurement,setting,value
"Oc1cc(Br)c(Oc2ccc(Br)cc2Br)cc1Br [4-OH-BDE-49, 4′-hydroxy-2,2′,4,5′-tetrabromodiphenyl ether]",Binding affinity for human TTR compared with T4,[1],higher affinity than T4
same,IC50,"[2]; read-out: IC50, T4-TTR competitive binding, 55 nM T4 + 125I-T4, overnight at 4 °C, Tris-EDTA pH 8.0, 6 replicates",12.2 nM
same,Ki,"[2]; read-out: Ki, T4-TTR competitive binding, calculated from IC50 after Cheng and Prusoff, unit inferred",12.2 nM
same,IC50,"human albumin (ALB); read-out: IC50, T4-ALB competitive binding, 55 nM T4 + 125I-T4, overnight at 4 °C, Tris-EDTA pH 8.0, 6 replicates",1.15 nM
same,Ki,"human albumin (ALB); read-out: Ki, T4-ALB competitive binding, calculated from IC50 after Cheng and Prusoff, unit inferred",1.08 nM
